# Patent US9296693B2, “Acyl piperidine inhibitors of soluble epoxide hydrolase” (The Regents of the University of California, priority 2010, dated 2016)
# Several values for one entry are separate records, joined by “and”; a condition that tells them apart may be missing. Equal entries are not always repeated. Where two headings read alike, the source gives them in different places.
# How the values were obtained:
# [1] = target: murine sEH (Mus musculus (Mouse), UniProt P34914); assay: fluorescent based IC50 assay (CMNPC substrate), recombinant murine sEH; assay type: biochemical; details: homogenous recombinant murine sEH 1 nM, CMNPC 5 μM, pH 7.0, 30° C., average of three replicates
# [2] = target: Human sEH (Homo sapiens (Human), UniProt P34913); assay: fluorescent based IC50 assay (CMNPC substrate), recombinant human sEH;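 also: enzyme preincubated with inhibitor for 5 min before adding substrate, in 25 mM Bis-Tris/HCl buffer supplemented with 0.1 mg/mL BSA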
# [3] = Pharmacokinetic screening of selected haloalkyl-phenyl ureas, blood profiles; assay type: in vivo; details: whole blood
# [4] = read-out: IC50 (nM) Human, homogenous recombinant human sEH 1 nM, CMNPC 5 μM, pH 7.0, 30° C., average of three replicates
# Sequence of Human sEH (P34913 whole entry): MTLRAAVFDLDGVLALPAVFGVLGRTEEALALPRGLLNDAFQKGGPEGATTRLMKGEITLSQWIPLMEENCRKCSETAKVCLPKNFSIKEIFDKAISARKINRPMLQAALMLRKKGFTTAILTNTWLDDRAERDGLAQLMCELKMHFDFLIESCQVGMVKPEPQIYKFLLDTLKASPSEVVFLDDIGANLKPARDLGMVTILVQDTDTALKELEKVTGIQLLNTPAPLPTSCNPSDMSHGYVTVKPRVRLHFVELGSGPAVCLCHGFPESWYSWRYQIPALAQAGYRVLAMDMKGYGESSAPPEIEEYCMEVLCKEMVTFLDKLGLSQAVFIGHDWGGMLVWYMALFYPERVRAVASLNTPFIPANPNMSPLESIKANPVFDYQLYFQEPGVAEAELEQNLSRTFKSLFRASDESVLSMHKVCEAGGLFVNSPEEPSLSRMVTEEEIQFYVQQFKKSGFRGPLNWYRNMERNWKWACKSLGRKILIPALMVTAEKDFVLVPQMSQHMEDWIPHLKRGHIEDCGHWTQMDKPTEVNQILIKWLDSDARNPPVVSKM
# Sequence of murine sEH (P34914 whole entry): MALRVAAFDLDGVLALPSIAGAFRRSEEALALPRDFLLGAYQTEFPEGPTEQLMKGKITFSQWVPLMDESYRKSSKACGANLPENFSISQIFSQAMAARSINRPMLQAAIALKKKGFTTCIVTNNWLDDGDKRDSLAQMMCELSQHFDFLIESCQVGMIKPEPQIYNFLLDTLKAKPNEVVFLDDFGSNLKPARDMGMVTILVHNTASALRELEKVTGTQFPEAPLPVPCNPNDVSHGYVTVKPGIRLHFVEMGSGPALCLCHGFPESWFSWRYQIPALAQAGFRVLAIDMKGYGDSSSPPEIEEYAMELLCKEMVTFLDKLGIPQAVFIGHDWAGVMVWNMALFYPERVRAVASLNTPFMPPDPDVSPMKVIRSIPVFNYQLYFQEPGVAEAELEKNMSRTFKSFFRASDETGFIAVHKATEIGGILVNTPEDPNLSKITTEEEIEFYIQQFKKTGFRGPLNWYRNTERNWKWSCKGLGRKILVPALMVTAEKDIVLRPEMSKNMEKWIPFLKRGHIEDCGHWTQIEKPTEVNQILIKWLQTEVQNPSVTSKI
SMILES,IC50 [1],"IC50 [2, 4]",also measured
"CCC(=O)N1CCC(NC(=O)Nc2ccccc2F)CC1 [Compound 29, 1-(2-Fluorophenyl)-3-(1-propionylpiperidin-4-yl)urea]",780 nM,300 nM,
"CCC(=O)N1CCC(NC(=O)Nc2ccc(Cl)c(Cl)c2)CC1 [Compound 32, 1-(3,4-Dichlorophenyl)-3-(1-propionylpiperidin-4-yl)urea]",0.6 nM,3.4 nM,
"CCC(=O)N1CCC(NC(=O)NC2CCCCCC2)CC1 [Compound 3, 1-Cycloheptyl-3-(1-propionylpiperidin-4-yl)urea]",0.9 nM,3.9 nM,
"CCS(=O)(=O)N1CCC(NC(=O)Nc2ccc(OC(F)(F)F)cc2)CC1 [Compound 56, 1-(1-(Ethylsulfonyl)piperidin-4-yl)-3-(4-(trifluoromethoxy)phenyl)urea]",0.7 nM,0.4 nM,
"CCC(=O)N1CCC(NC(=O)Nc2c(Cl)cccc2Cl)CC1 [Compound 34, 1-(2,6-Dichlorophenyl)-3-(1-propionylpiperidin-4-yl)urea]",> 5000 nM and 38000 nM,> 50000 nM,IC50 [2]: > 5000 nM
"CCC(=O)N1CCC(NC(=O)NC2CCCCC2)CC1 [Compound 4, 1-Cyclohexyl-3-(1-propionylpiperidin-4-yl)urea]",3.5 nM,12 nM,
"CCC(=O)N1CCC(NC(=O)Nc2cccc(F)c2)CC1 [Compound 28, 1-(3-Fluorophenyl)-3-(1-propionylpiperidin-4-yl)urea]",20 nM,39 nM,
"CCC(=O)N1CCC(NC(=O)Nc2ccc(N3CCOCC3)cc2)CC1 [Compound 19, 1-(4-Morpholinophenyl)-3-(1-propionylpiperidin-4-yl)urea]",650 nM,2000 nM,
"CCC(=O)N1CCC(NC(=O)Nc2ccc(Cl)cc2)CC1 [Compound 25, 1-(4-Chlorophenyl)-3-(1-propionylpiperidin-4-yl)urea]",23 nM,10 nM,
"CCC(C)C(=O)N1CCC(NC(=O)Nc2ccc(C(F)(F)F)cc2)CC1 (stereo not drawn) [Compound 64, 1-(1-(2-methylbutyryl)piperidin-4-yl)-3-(4-(trifluoromethyl)phenyl)urea]",,,AUC [3]: 3.9 µM·h; Cmax [3]: 4 µM; Tmax [3]: 4 h; half-life [3]: 2.5 h
"CCC(=O)N1CCC(NC(=O)Nc2ccccc2)CC1 [Compound 7, 1-Phenyl-3-(1-propionylpiperidin-4-yl)urea]",49 nM,130 nM,
"CS(=O)(=O)N1CCC(NC(=O)Nc2ccc(OC(F)(F)F)cc2)CC1 [Compound 55, 1-(1-(Methylsulfonyl)piperidin-4-yl)-3-(4-(trifluoromethoxy)phenyl)urea]",2 nM,2.9 nM,
"CCC(=O)N1CCC(NC(=O)Nc2ccc(Br)cc2)CC1 [Compound 26, 1-(4-Bromophenyl)-3-(1-propionylpiperidin-4-yl)urea]",15 nM,3.6 nM,
"O=C(Nc1ccc(C(F)(F)F)cc1)NC1CCN(S(=O)(=O)C2CC2)CC1 [Compound 70, 1-(1-(cyclopropylsulfonyl)piperidin-4-yl)-3-(4-(trifluoromethyl)phenyl)urea]",,,AUC [3]: 167 µM·h; Cmax [3]: 10.9 µM; Tmax [3]: 4 h; half-life [3]: 11.9 h
"CCCCCCCCNC(=O)NC1CCN(C(=O)CC)CC1 [Compound 5, 1-Octyl-3-(1-propionylpiperidin-4-yl)urea]",0.4 nM,3.2 nM,
"CCC(=O)N1CCC(NC(=O)Nc2ccc(OC)cc2)CC1 [Compound 15, 1-(4-Methoxyphenyl)-3-(1-propionylpiperidin-4-yl)urea]",8.7 nM,87 nM,
CCC(=O)N1CCC(NC(=O)Nc2cccc(C)c2)CC1 [Compound 11],8.7 nM,40 nM,
"CCC(=O)N1CCC(NC(=O)Nc2ccc(I)cc2)CC1 [Compound 27, 1-(4-Iodophenyl)-3-(1-propionylpiperidin-4-yl)urea]",1.4 nM,7.2 nM,
"CCC(=O)N1CCC(NC(=O)Nc2cccc(Cl)c2)CC1 [Compound 30, 1-(3-Chlorophenyl)-3-(1-propionylpiperidin-4-yl)urea]",6.6 nM,21 nM,
"O=C(Nc1ccc(OC(F)(F)F)cc1)NC1CCN(C(=O)Cc2ccccn2)CC1 [Compound 49, 1-(((Pyridin-2-yl)acetyl)piperidin-4-yl)-3-(4-(trifluoromethoxy)phenyl) urea]",5 nM,3.1 nM,

# Now from value to molecule, other results behind:
IC50 [1],"IC50 [2, 4]",SMILES,also measured
0.4 nM,,"O=C(Nc1ccc(OC(F)(F)F)cc1)NC1CCN(C(=O)C(F)(F)F)CC1 [Compound 53, 1-(1-(Trifluoroacetyl)piperidin-4-yl)-3-(4-(trifluoromethoxy)phenyl) urea]",
1.2 nM,0.5 nM,"CC(=O)N1CCN(CC(=O)N2CCC(NC(=O)Nc3ccc(OC(F)(F)F)cc3)CC2)CC1 [Compound 51, 1-(1-((4-Acetylpiperazin-1-yl)acetyl)piperidin-4-yl)-3-(4-(trifluoromethoxy)phenyl)urea]",
0.4 nM,3.5 nM,"CCC(=O)N1CCC(NC(=O)Nc2ccc(Oc3ccccc3)cc2)CC1 [Compound 16, 1-(4-Phenoxyphenyl)-3-(1-propionylpiperidin-4-yl)urea]",
28 nM,17 nM,"CCC(=O)N1CCC(NC(=O)Nc2ccc(C(F)(C(F)(F)F)C(F)(F)F)cc2C)CC1 [Compound 39, 1-(2-Methyl-4-perfluoroisopropylphenyl)-3-(1-propionylpiperidin-4-yl)urea]",
1.2 nM,2.8 nM,"CCC(=O)N1CCC(NC(=O)NC23CC4CC(CC(C4)C2)C3)CC1 [Compound 2, 1-(1-Adamantyl)-3-(1-propionylpiperidin-4-yl)urea]",
0.4 nM,,"O=C(Nc1ccc(OC(F)(F)F)cc1)NC1CCN(C(=O)C2CC2)CC1 [Compound 52, 1-(1-(Cyclopropanecarbonyl)piperidin-4-yl)-3-(4-(trifluoromethoxy)phenyl) urea]",
0.7 nM,0.4 nM,"CCC(=O)N1CCC(NC(=O)Nc2ccc(C(F)(C(F)(F)F)C(F)(F)F)cc2)CC1 [Compound 38, 1-(4-Perfluoroisopropylphenyl)-3-(1-propionylpiperidin-4-yl)urea]",
2900 nM,1100 nM,"CCC(=O)N1CCC(NC(=O)Nc2ccccc2Cl)CC1 [Compound 31, 1-(2-Chlorophenyl)-3-(1-propionylpiperidin-4-yl)urea]",
1.3 nM,8.3 nM,"CCC(=O)N1CCC(NC(=O)Nc2ccc(CC)cc2)CC1 [Compound 13, 1-(4-Ethylphenyl)-3-(1-propionylpiperidin-4-yl)urea]",
2.3 nM,4.1 nM,"CCC(=O)N1CCC(NC(=O)Nc2ccc(Cl)c(C(F)(F)F)c2)CC1 [Compound 35, 1-(4-Chloro-3-(trifluoromethyl)phenyl)-3-(1-propionylpiperidin-4-yl)urea]",
1000 nM,330 nM,"CCC(=O)N1CCC(NC(=O)Nc2ccc(C(=O)O)cc2)CC1 [Compound 22, 4-(3-(1-Propionylpiperidin-4-yl)ureido)benzoic acid]",
0.7 nM,0.6 nM,"O=C(Nc1ccc(OC(F)(F)F)cc1)NC1CCN(C(=O)c2ccc(Cl)nc2)CC1 [Compound 48, 1-(1-(6-Chloronicotinoyl)piperidin-4-yl)-3-(4-(trifluoromethoxy)phenyl) urea]",
1.3 nM,0.7 nM,"O=C(Nc1ccc(OC(F)(F)F)cc1)NC1CCN(C(=O)c2ccncc2)CC1 [Compound 47, 1-(1-Isonicotinoylpiperidin-4-yl)-3-(4-(trifluoromethoxy)phenyl)urea]",
1400 nM,,"CCC(=O)N1CCC(NC(=O)Nc2ccc(O)cc2)CC1 [Compound 23, 1-(4-Hydroxyphenyl)-3-(1-propionylpiperidin-4-yl)urea]",
1 nM,0.4 nM,"CCC(=O)N1CCC(NC(=O)Nc2cc(Cl)cc(Cl)c2)CC1 [Compound 33, 1-(3,5-Dichlorophenyl)-3-(1-propionylpiperidin-4-yl)urea]",
4.2 nM,3 nM,"CCC(=O)N1CCC(NC(=O)Nc2ccc3ccccc3c2)CC1 [Compound 8, 1-(Naphthalen-2-yl)-3-(1-propionylpiperidin-4-yl)urea]",
0.4 nM,,"Cc1ccc(S(=O)(=O)N2CCC(NC(=O)Nc3ccc(OC(F)(F)F)cc3)CC2)cc1 [Compound 58, 1-(1-Tosylpiperidin-4-yl)-3-(4-(trifluoromethoxy)phenyl)urea]",
> 5000 nM and 25000 nM,> 5000 nM,"CCC(=O)N1CCC(NC(=O)Nc2cc(OC)c(OC)c(OC)c2)CC1 [Compound 18, 1-(1-Propionylpiperidin-4-yl)-3-(3,4,5-trimethoxyphenyl)urea]",
97 nM,,"CCC(=O)N1CCC(NC(=O)Nc2ccc([N+](=O)[O-])cc2)CC1 [Compound 20, 1-(4-Nitrophenyl)-3-(1-propionylpiperidin-4-yl)urea]",
8.8 nM,17 nM,"CCC(=O)N1CCC(NC(=O)Nc2cccc(C(F)(F)F)c2)CC1 [Compound 37, 1-(1-Propionylpiperidin-4-yl)-3-(3-(trifluoromethyl)phenyl)urea]",
0.4 nM,1.8 nM,"O=C(Nc1ccc(OC(F)(F)F)cc1)NC1CCN(S(=O)(=O)c2ccccc2)CC1 [Compound 57, 1-(1-(Phenylsulfonyl)piperidin-4-yl)-3-(4-(trifluoromethoxy)phenyl)urea]",
> 5000 nM and 5100 nM,1700 nM,"CCC(=O)N1CCC(NC(=O)Nc2ccccc2C)CC1 [Compound 10, 1-(1-Propionylpiperidin-4-yl)-3-o-tolylurea]",
6.5 nM,,"CCC(=O)N1CCC(NC(=O)Nc2ccc(C(F)(F)F)cc2)CC1 [Compound 36, 1-(1-Propionylpiperidin-4-yl)-3-(4-(trifluoromethyl)phenyl)urea]",
3.3 nM,2.8 nM,"CCC(=O)N1CCC(NC(=O)Nc2ccc(C(C)C)cc2)CC1 [Compound 14, 1-(4-Isopropylphenyl)-3-(1-propionylpiperidin-4-yl)urea]",
